# Measurements taken from patent US20030166202A1, “P450 Monooxygenases of the cyp79 family” (priority 2000, published 2003).
# What was measured:
# [1] = biological target: T1, CYP79A2 (Arabidopsis thaliana, UniProt Q9FLC8); assay: CYP79A2 activity in E. coli spheroplasts reconstituted with NADPH:cytochrome P450 oxidoreductase
# T1 sequence (Q9FLC8 7-529 limits assumed): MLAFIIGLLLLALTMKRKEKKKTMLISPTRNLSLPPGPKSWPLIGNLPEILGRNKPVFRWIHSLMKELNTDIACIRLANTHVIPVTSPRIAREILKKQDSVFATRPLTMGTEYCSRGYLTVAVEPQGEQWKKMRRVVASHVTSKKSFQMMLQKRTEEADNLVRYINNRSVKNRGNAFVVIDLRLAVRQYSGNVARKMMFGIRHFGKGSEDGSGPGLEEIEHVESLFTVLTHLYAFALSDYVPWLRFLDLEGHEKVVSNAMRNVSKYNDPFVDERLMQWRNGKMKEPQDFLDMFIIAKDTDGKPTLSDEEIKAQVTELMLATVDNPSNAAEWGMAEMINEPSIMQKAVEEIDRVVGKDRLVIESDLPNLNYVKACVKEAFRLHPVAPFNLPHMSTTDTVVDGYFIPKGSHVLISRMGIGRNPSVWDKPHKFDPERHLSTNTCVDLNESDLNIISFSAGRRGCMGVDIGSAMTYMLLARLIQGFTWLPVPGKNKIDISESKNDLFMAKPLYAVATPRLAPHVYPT
# [2] = biological target: CYP79F1 (Arabidopsis thaliana, UniProt Q949U1, M2A); details: E. coli C43(DE3) spheroplasts, GC-MS or TLC
# Description: In a typical enzyme assay, 5 μl spheroplasts and 4 μl NADPH:cytochrome P450 reductase (equivalent to 0.04 units defined as 1 μmol cytochrome c/min) are incubated with substrate in buffer containing 30 mM KPi, pH 7.5, 3 mM NADPH, 3 mM reduced glutathione, 0.042% Tween 80, 1 mg ml^−1 L-α-dilauroylphosphatidylcholine in a total volume of 30 μl. Reaction mixtures containing spheroplasts of E. coli C43(DE3) transformed with empty vector are used as controls in all assays. 3.3 μM L-[U-^14C]phenylalanine (453 mCi/mmol; Pharmacia), 3.7 μM L-[U-^14C]tyrosine (449 mCi/mmol; Pharmacia), 0.1 mM L-[methyl-^14C]methionine (56 mCi/mmol; Pharmacia), and 24 μM L-[side chain-3-^14C]tryptophan (56.5 mCi/mmol; NEN) are tested as potential substrates. After incubation at 28° C. for 1 hour, half of the reaction mixture is analyzed by TLC on Silica Gel 60 F254 sheets (Merck) using toluene/ethyl acetate 5:1 (v/v) as eluent. Radiolabelled bands are visualized and quantified using a STORM 840 phosphoimager (Pharmacia). For GC-MS analysis, 450 μl reaction mixture containing 3.3 mM L-methionine (Sigma), 3.3 mM DL-dihomomethionine or 3.3 mM DL-trihomomethionine, respectively, are incubated for 4 hours at 25° C. and extracted with a total volume of 600 μl CHCl3. The organic phase is collected, evaporated, and the residue is dissolved in 15 μl CHCl3 and analyzed by GC-MS. […] An SGE column (BPX5, 25 m×0.25 mm, 0.25 μm film thickness) is used (heat pressure 100 kPa, splitless injection). The oven temperature program is as follows: 80° C. for 3 minutes, 80° C. to 180° C. at 5° C. min^−1, 180° C. to 300° C. at 20° C. min^−1, and 300° C. for 10 min. The ion source is run in EI mode (70 eV) at 200° C. […] DL-dihomomethionine, DL-trihomomethionine, 5-methylthiopentanaldoxime and 6-methylthiohexanaldoxime are synthesized as described (Dawson et al, J. Biol. Chem. 268: 27154-27159, 1993) and authenticated by NMR spectroscopy.
# [3] = biological target: T2, CYP79B2 (Arabidopsis thaliana, UniProt O81346); assay: CYP79B2 activity in E. coli spheroplasts reconstituted with NADPH:cytochrome P450 reductase
# T2 sequence (O81346 1-541): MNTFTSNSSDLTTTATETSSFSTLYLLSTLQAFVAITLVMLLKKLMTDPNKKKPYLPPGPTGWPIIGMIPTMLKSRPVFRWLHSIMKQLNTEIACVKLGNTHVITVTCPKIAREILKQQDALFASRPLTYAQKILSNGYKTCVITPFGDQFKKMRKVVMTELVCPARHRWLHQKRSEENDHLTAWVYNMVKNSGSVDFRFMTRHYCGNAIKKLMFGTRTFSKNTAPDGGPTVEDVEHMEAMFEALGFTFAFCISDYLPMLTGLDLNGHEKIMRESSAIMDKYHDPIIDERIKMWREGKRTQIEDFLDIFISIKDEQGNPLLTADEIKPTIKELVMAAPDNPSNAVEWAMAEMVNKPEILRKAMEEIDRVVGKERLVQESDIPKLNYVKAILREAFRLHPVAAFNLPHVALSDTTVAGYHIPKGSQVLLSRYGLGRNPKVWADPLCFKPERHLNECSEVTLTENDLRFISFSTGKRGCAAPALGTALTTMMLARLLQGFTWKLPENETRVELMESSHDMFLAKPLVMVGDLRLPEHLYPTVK
# Description: The activity of CYP79B2 is measured by reconstituting spheroplasts from E. coli expressing CYP79B2 with purified NADPH:cytochrome P450 reductase from Sorghum bicolor (L.) Moench. […] The reaction is incubated at 34° C. for 30 minutes, extracted two times with ethyl acetate and the ethyl acetate phase is analyzed by TLC using toluen:ethyl acetate 5:1 as eluent. Radiolabelled bands are visualized on a Storm 840 phosphorimager (Molecular Dynamics) and quantified with ImageQuant analysis software (Molecular Dynamics). Substrate specificity is investigated by substituting the ^14C-labelled tryptophan with ^14C-labelled tyrosine or phenylalanine. GC-MS is employed to verify the structure of the compound produced from tryptophan by recombinant CYP79B2. A 450 μl reaction mixture as described above containing 2 mM unlabelled tryptophan is incubated at 34° C. for 2 hours. The reaction mixture is extracted twice with 300 μl CHCl3 and lyophilized until dryness. GC-MS is performed with an HP5890 Series II gas chromatograph coupled to a Jeol JMS-AX505W mass spectrometer. Splitless injection on an SGE column (BPX5, 25 mm×0.25 mm, 0.25 μm film thickness) and a head pressure of 100 kPa are used.
# Single colonies are grown overnight at 37° C. in LB medium containing 100 μg/ml ampicillin. 1 ml of the overnight culture is used to inoculate 75 ml TB medium containing 100 μg/ml ampicillin, 75 μg/ml δ-aminolevulinic acid, 1 mM thiamine and 1 mM IPTG. The TB cultures are grown for 44 hours at 125 rpm and 28° C.
# [4] = Non-enzymatic conversion of tryptophan under oxidative conditions; details: 100 mM H2O2, 1 mM MnCl2, 800 μM 2,4-dichlorophenol in 50 mM Tricine buffer, pH 8.0, no enzyme
# [5] = substrate: N[C@@H](Cc1ccccc1)C(=O)O; assay: purified protein, by the assay type; details: other: spheroplasts expressing 'native' CYP79A2, 2 hours at 26° C., pH 7.5
# [6] = substrate: N[C@@H](Cc1c[nH]c2ccccc12)C(=O)O; assay: purified protein, by the assay type; details: other: native CYP79B2 construct; pH 7.9
# Sequence of CYP79F1 (Q949U1 whole entry M2A): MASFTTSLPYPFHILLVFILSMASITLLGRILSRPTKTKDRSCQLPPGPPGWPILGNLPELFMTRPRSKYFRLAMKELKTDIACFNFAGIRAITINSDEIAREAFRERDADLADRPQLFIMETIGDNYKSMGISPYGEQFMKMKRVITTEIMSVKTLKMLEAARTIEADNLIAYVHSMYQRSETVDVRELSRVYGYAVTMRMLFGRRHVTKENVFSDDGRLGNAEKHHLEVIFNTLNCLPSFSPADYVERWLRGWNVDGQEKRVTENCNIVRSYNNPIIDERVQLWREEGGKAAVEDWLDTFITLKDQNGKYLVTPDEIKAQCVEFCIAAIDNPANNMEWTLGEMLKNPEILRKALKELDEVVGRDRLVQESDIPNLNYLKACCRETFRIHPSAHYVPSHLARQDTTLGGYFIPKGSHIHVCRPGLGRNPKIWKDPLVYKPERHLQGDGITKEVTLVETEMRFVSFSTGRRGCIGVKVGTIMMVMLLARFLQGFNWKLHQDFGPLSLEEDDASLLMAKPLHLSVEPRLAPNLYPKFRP
molecule,measurement,setting,value
N[C@@H](Cc1c[nH]c2ccccc12)C(=O)O [L-tryptophan],production of the respective aldoxime by CYP79A2,[1],does not result in production of detectable amounts of the respective aldoximes
same,formation of the corresponding aldoxime by CYP79F1,[2],did not result in the formation of detectable amounts of the corresponding aldoximes
same,Vmax,[3]; native CYP79B2 construct,97.2 pmol/h/μl spheroplast
same,oxime production by CYP79B2,"[3]; radiolabelled amino acid, TLC",production of a strong band that co-migrates with authentic IAOX standard
same,conversion rate to compound co-migrating with IAOX relative to CYP79B2,[4],approximately 0.7%
CYP79A2 (Arabidopsis thaliana) (protein) MLAFIIGLLLLALTMKRKEKKKTMLISPTRNLSLPPGPKSWPLIGNLPEILGRNKPVFRWIHSLMKELNTDIACIRLANTHVIPVTSPRIAREILKKQDSVFATRPLTMGTEYCSRGYLTVAVEPQGEQWKKMRRVVASHVTSKKSFQMMLQKRTEEADNLVRYINNRSVKNRGNAFVVIDLRLAVRQYSGNVARKMMFGIRHFGKGSEDGSGPGLEEIEHVESLFTVLTHLYAFALSDYVPWLRFLDLEGHEKVVSNAMRNVSKYNDPFVDERLMQWRNGKMKEPQDFLDMFIIAKDTDGKPTLSDEEIKAQVTELMLATVDNPSNAAEWGMAEMINEPSIMQKAVEEIDRVVGKDRLVIESDLPNLNYVKACVKEAFRLHPVAPFNLPHMSTTDTVVDGYFIPKGSHVLISRMGIGRNPSVWDKPHKFDPERHLSTNTCVDLNESDLNIISFSAGRRGCMGVDIGSAMTYMLLARLIQGFTWLPVPGKNKIDISESKNDLFMAKPLYAVATPRLAPHVYPT,Km,[5],6.7 μmol I^−1
CYP79B2 (Arabidopsis thaliana) (protein) MNTFTSNSSDLTTTATETSSFSTLYLLSTLQAFVAITLVMLLKKLMTDPNKKKPYLPPGPTGWPIIGMIPTMLKSRPVFRWLHSIMKQLNTEIACVKLGNTHVITVTCPKIAREILKQQDALFASRPLTYAQKILSNGYKTCVITPFGDQFKKMRKVVMTELVCPARHRWLHQKRSEENDHLTAWVYNMVKNSGSVDFRFMTRHYCGNAIKKLMFGTRTFSKNTAPDGGPTVEDVEHMEAMFEALGFTFAFCISDYLPMLTGLDLNGHEKIMRESSAIMDKYHDPIIDERIKMWREGKRTQIEDFLDIFISIKDEQGNPLLTADEIKPTIKELVMAAPDNPSNAVEWAMAEMVNKPEILRKAMEEIDRVVGKERLVQESDIPKLNYVKAILREAFRLHPVAAFNLPHVALSDTTVAGYHIPKGSQVLLSRYGLGRNPKVWADPLCFKPERHLNECSEVTLTENDLRFISFSTGKRGCAAPALGTALTTMMLARLLQGFTWKLPENETRVELMESSHDMFLAKPLVMVGDLRLPEHLYPTVK,Km,[6],21 µM
